Source: patent US11279686B2, “Nrf2 activating compounds and uses thereof” (Rigel Pharmaceuticals, Inc., priority 2016, dated 2022)
Structures can show the parent of a compound that is named as a salt.

Test system: not listed separately
Assay: Glutathione depletion assay (Michael reaction with reduced glutathione followed by 1H NMR)
Conditions: 2 equiv. reduced glutathione, d6-DMSO, 35° C.
From the text: See, for example, Lehmann et al. Dimethyfumarate Induces Immunosuppression via Glutathione Depletion and Subsequent Induction of Heme Oxygenase 1, Journal of Investigative Dermatology (2007) 127, 835-845. Accordingly, the present compounds may be assessed in vitro by reaction with glutathione as follows:
(with the top securely fastened).
In all the above cases, dis-appearance of the alkene proton signals from the starting material are used to determine the extent of Michael reaction with glutathione.
As would be understood by those of skill in the art, the above experiments can be repeated by varying the equivalents of reduced glutathione (0.5 to 2 equivalents); the reactions can also be run in a mixture of d6-DMSO and D2O; and the temperature of the reaction can also be varied from room temperature to 35° C. (35° C. being used to mimic body temperature). As used herein “majority reaction” means a greater than 50% reduction in alkene proton signal as observed by ^1H NMR.

| SMILES | time to majority reaction with glutathione (greater than 50% reduction in alkene proton signal by 1H NMR) |
| --- | --- |
| COC(=O)/C=C/n1nnn(C)c1=O [methyl (E)-3-(4-methyl-5-oxo-4,5-dihydro-1H-tetrazol-1-yl)acrylate] | ≤ 30 h |
| COC(=O)/C=C/n1nn[nH]c1=O [methyl (E)-3-(5-oxo-4,5-dihydro-1H-tetrazol-1-yl)acrylate] | ≤ 30 h |

Test system: NrF2 (Nuclear factor (erythroid-derived 2)-like 2)
Assay: NrF2 activation in a whole cell nuclear translocation assay
Assay type: cell-based
Conditions: read-out: NrF2 translocation assay EC50; whole cell nuclear translocation; Table 2
Method: NrF2 Activation in a Whole Cell Nuclear Translocation Assay
Compounds were tested in a NrF2 (Nuclear factor (erythroid-derived 2)-like 2) translocation assay by adapting the methods set forth in U.S. Pat. No. 8,101,373, the disclosure of which is incorporated herein by reference.

| SMILES | EC50 |
| --- | --- |
| CS(=O)(=O)/C=C/n1nnn(-c2cccnc2)c1=O [Compound 3, (E)-1-(2-(methylsulfonyl)vinyl)-4-(pyridin-3-yl)-1,4-dihydro-5H-tetrazol-5-one] | 120 nM |
| CS(=O)(=O)/C=C/C(=O)O [Compound 15, (E)-3-(methylsulfonyl)acrylic Acid] | 44800 nM |

Same assay, conditions: reference fumarates; read-out: NrF2 activation EC50

| SMILES | EC50 |
| --- | --- |
| COC(=O)/C=C/C(=O)O [Monomethyl fumarate, reference compound] | ~127000 nM |
| COC(=O)/C=C/C(=O)OC [dimethyl fumarate, reference compound] | ~7900 nM |

Same assay, conditions: whole cell nuclear translocation; Table 2; read-out: NrF2 translocation assay EC50

| SMILES | EC50 |
| --- | --- |
| COC(=O)/C=C/S(=O)(=O)c1ccc2ccccc2c1 [Compound 9] | < 390 nM |
| O=c1n(/C=C/S(=O)(=O)c2ccc(F)cc2)nnn1-c1cccnc1 [Compound 19, (E)-1-(2-((4-fluorophenyl)sulfonyl)vinyl)-4-(pyridin-3-yl)-1,4-dihydro-5H-tetrazol-5-one] | 30 nM |

Second part, the compound after the results:

| EC50 | SMILES |
| --- | --- |
| 290 nM | Cc1ccc(S(=O)(=O)/C=C/n2nnn(-c3cccnc3)c2=O)cc1 [Compound 1, (E)-1-(pyridin-3-yl)-4-(2-tosylvinyl)-1,4-dihydro-5H-tetrazol-5-one] |
| 750 nM | COC(=O)/C=C/S(=O)(=O)c1ccc(NC(C)=O)cc1 [Compound 4] |
| 1000 nM | COC(=O)/C=C/S(C)(=O)=O [Compound 5] |
| 790 nM | COC(=O)/C=C\S(=O)(=O)c1ccc(F)cc1 [Compound 6] |
| < 390 nM | CCOC(=O)/C=C/S(=O)(=O)c1ccccc1 [Compound 7] |
| < 390 nM | COC(=O)/C=C/S(=O)(=O)c1ccc(Br)cc1 [Compound 8] |
| 190 nM | CCn1nnn(/C=C/S(=O)(=O)c2ccc(C)cc2)c1=O [Compound 16, (E)-1-ethyl-4-(2-tosylvinyl)-1,4-dihydro-5H-tetrazol-5-one] |
| 170 nM | Cc1ccc(S(=O)(=O)/C=C/n2nnn(Cc3ccccc3)c2=O)cc1 [Compound 17, (E)-1-benzyl-4-(2-tosylvinyl)-1,4-dihydro-5H-tetrazol-5-one] |
| 200 nM | Cn1nnn(/C=C/S(=O)(=O)c2ccc(F)cc2)c1=O [Compound 18, (E)-1-(2-((4-fluorophenyl)sulfonyl)vinyl)-4-methyl-1,4-dihydro-5H-tetrazol-5-one] |

Test system: experimental autoimmune encephalomyelitis (EAE)
Assay: Experimental autoimmune encephalomyelitis (EAE) animal model
Assay type: in vivo, C57BL/6 mice
Conditions: dosed at 60 mg/kg beginning on the day of immunization

| SMILES | onset of disease paralysis |
| --- | --- |
| COC(=O)/C=C/n1nn[nH]c1=O [methyl (E)-3-(5-oxo-4,5-dihydro-1H-tetrazol-1-yl)acrylate] | significantly prevents |
